This experiment can be described thus: Inhibition of Clostridium histolyticum collagenase using a linear regression program.

As to `CC(C(=O)NO)N(Cc1ccc([N+](=O)[O-])cc1)S(=O)(=O)C(F)(F)C(F)(F)C(F)(F)C(F)(F)C(F)(F)C(F)(F)C(F)(F)C(F)(F)F` (configuration not stated) [2-[(Heptadecafluorooctane-1-sulfonyl)-(4-nitro-benzyl)-amino]-N-hydroxy-propionamide], the Ki (in general, a dissociation constant, usually derived from enzyme kinetics or from competition with a known ligand) was found to be 7 µM. Next, `CC(C(=O)O)N(Cc1ccc([N+](=O)[O-])cc1)C(=O)Nc1ccc(F)cc1F` (configuration not stated) [2-[3-(2,4-Difluoro-phenyl)-1-(4-nitro-benzyl)-ureido]-propionic acid]: 6.2 µM; `Cc1ccc(S(=O)(=O)N(Cc2ccc([N+](=O)[O-])cc2)C(C)C(=O)O)cc1` (configuration not stated) [2-[(4-Nitro-benzyl)-(toluene-4-sulfonyl)-amino]-propionic acid]: 13 µM. The value for `CC(C(=O)NO)N(Cc1ccc([N+](=O)[O-])cc1)S(=O)(=O)c1cccc2ccccc12` (configuration not stated) [N-Hydroxy-2-[(naphthalene-1-sulfonyl)-(4-nitro-benzyl)-amino]-propionamide] was 7 µM; that for `CC(C(=O)O)N(Cc1ccc([N+](=O)[O-])cc1)S(=O)(=O)c1ccc([N+](=O)[O-])c(Cl)c1` (configuration not stated) [2-[(3-Chloro-4-nitro-benzenesulfonyl)-(4-nitro-benzyl)-amino]-propionic acid] was 3.3 µM. `CC(C(=O)NO)N(Cc1ccc([N+](=O)[O-])cc1)S(=O)(=O)c1cccc(NC(=O)OC(C)(C)C)c1` (configuration not stated) [{3-[(1-Hydroxycarbamoyl-ethyl)-(4-nitro-benzyl)-sulfamoyl]-phenyl}-carbamic acid tert-butyl ester] returned a Ki of 8 µM. Compared with the last molecule, the Ki is about 2.4-fold higher.

With `CC(C(=O)O)N(Cc1ccc([N+](=O)[O-])cc1)Sc1ccccc1[N+](=O)[O-]` (configuration not stated) [2-[(4-Nitro-benzyl)-(2-nitro-phenylsulfanyl)-amino]-propionic acid], the Ki came out at 6.3 µM. The molecule `CC(C(=O)O)N(Cc1ccc([N+](=O)[O-])cc1)Sc1ccc([N+](=O)[O-])cc1[N+](=O)[O-]` (configuration not stated) [2-[(2,4-Dinitro-phenylsulfanyl)-(4-nitro-benzyl)-amino]-propionic acid] had a Ki of 5.1 µM.

`Cc1ccc(S(=O)(=O)N(Cc2ccc([N+](=O)[O-])cc2)C(C)C(=O)NO)cc1` (configuration not stated) [N-Hydroxy-2-[(4-nitro-benzyl)-(toluene-4-sulfonyl)-amino]-propionamide] registered a Ki of 36 µM.

The molecule `CC(C(=O)O)N(Cc1ccc([N+](=O)[O-])cc1)S(=O)(=O)c1ccc([N+](=O)[O-])cc1` (configuration not stated) [2-[(4-Nitro-benzenesulfonyl)-(4-nitro-benzyl)-amino]-propionic acid] registered a Ki of 5.3 µM. Next, `CC(C(=O)O)N(Cc1ccc([N+](=O)[O-])cc1)C(=O)NS(=O)(=O)c1ccc(F)cc1` (configuration not stated) [2-[({[(4-fluorophenyl)sulfonyl]amino}carbonyl)(4-nitrobenzyl)amino]propanoic acid]: 3.3 µM; `CC(C(=O)O)N(Cc1ccc([N+](=O)[O-])cc1)S(=O)(=O)c1ccccc1[N+](=O)[O-]` (configuration not stated) [2-[(2-Nitro-benzenesulfonyl)-(4-nitro-benzyl)-amino]-propionic acid]: 4.8 µM; `CC(C(=O)O)N(Cc1ccc([N+](=O)[O-])cc1)S(=O)(=O)c1cccs1` (configuration not stated) [2-[(4-Nitro-benzyl)-(thiophene-2-sulfonyl)-amino]-propionic acid]: 2.1 µM. Next, `CC(C(=O)O)N(Cc1ccc([N+](=O)[O-])cc1)S(=O)(=O)c1cc(Cl)cc(Cl)c1O` (configuration not stated) [2-[(3,5-Dichloro-2-hydroxy-benzenesulfonyl)-(4-nitro-benzyl)-amino]-propionic acid]: 2.5 µM; `CC(C(=O)O)N(Cc1ccc([N+](=O)[O-])cc1)S(=O)(=O)Cc1ccccc1` (configuration not stated) [2-[(4-Nitro-benzyl)-phenylmethanesulfonyl-amino]-propionic acid]: 15 µM. Next, `CC(C(=O)NO)N(Cc1ccc([N+](=O)[O-])cc1)S(=O)(=O)c1cccs1` (configuration not stated) [N-Hydroxy-2-[(4-nitro-benzyl)-(thiophene-2-sulfonyl)-amino]-propionamide]: 11 µM; `CC(C(=O)NO)N(Cc1ccc([N+](=O)[O-])cc1)S(=O)(=O)c1cc(Cl)ccc1Cl` (configuration not stated) [2-[(2,5-Dichloro-benzenesulfonyl)-(4-nitro-benzyl)-amino]-N-hydroxy-propionamide]: 13 µM; `Cc1ccccc1S(=O)(=O)NC(=O)N(Cc1ccc([N+](=O)[O-])cc1)C(C)C(=O)NO` (configuration not stated) [N-hydroxy-2-[({[(2-methylphenyl)sulfonyl]amino}carbonyl)(4-nitrobenzyl)amino]propanamide]: 8 µM.

Regarding `COc1ccc(S(=O)(=O)N(Cc2ccc([N+](=O)[O-])cc2)C(C)C(=O)NO)cc1` (configuration not stated) [N-Hydroxy-2-[(4-methoxy-benzenesulfonyl)-(4-nitro-benzyl)-amino]-propionamide], the Ki was 21 µM. Next, `CC(C(=O)O)N(Cc1ccc([N+](=O)[O-])cc1)S(=O)(=O)c1ccccc1` (configuration not stated) [2-[Benzenesulfonyl-(4-nitro-benzyl)-amino]-propionic acid]: 21 µM; `CC(C(=O)O)N(Cc1ccc([N+](=O)[O-])cc1)S(=O)(=O)C(Cl)(Cl)Cl` (configuration not stated) [2-[(4-Nitro-benzyl)-trichloromethanesulfonyl-amino]-propionic acid]: 5.1 µM; `CC(C(=O)NO)N(Cc1ccc([N+](=O)[O-])cc1)S(=O)(=O)c1ccc(C(=O)O)cc1` (configuration not stated) [4-[(1-Hydroxycarbamoyl-ethyl)-(4-nitro-benzyl)-sulfamoyl]-benzoic acid]: 6 µM. Molecule `CC(C(=O)O)N(Cc1ccc([N+](=O)[O-])cc1)S(=O)(=O)c1cccc(C(F)(F)F)c1` (configuration not stated) [2-[(4-Nitro-benzyl)-(3-trifluoromethyl-benzenesulfonyl)-amino]-propionic acid] registered a Ki of 0.3 µM. Molecule `CC(C(=O)NO)N(Cc1ccc([N+](=O)[O-])cc1)C(=S)NC(=O)c1ccccc1` (configuration not stated) [2-[3-Benzoyl-1-(4-nitro-benzyl)-thioureido]-N-hydroxy-propionamide] yielded a Ki of 6 µM. Compared with the last molecule, the Ki is about 20-fold higher.

The molecule `CC(C(=O)O)N(Cc1ccc([N+](=O)[O-])cc1)C(=O)Nc1cccc(Cl)c1` (configuration not stated) [2-[3-(3-Chloro-phenyl)-1-(4-nitro-benzyl)-ureido]-propionic acid] showed a Ki of 6.1 µM. The Ki values of the last two molecules are within 1.5-fold of each other. The value for `CC(=O)Nc1ccc(S(=O)(=O)N(Cc2ccc([N+](=O)[O-])cc2)C(C)C(=O)NO)cc1` (configuration not stated) [2-[(4-Acetylamino-benzenesulfonyl)-(4-nitro-benzyl)-amino]-N-hydroxy-propionamide] was 11 µM.

The molecule `COc1ccc(S(=O)(=O)N(Cc2ccc([N+](=O)[O-])cc2)C(C)C(=O)O)cc1` (configuration not stated) [2-[(4-Methoxy-benzenesulfonyl)-(4-nitro-benzyl)-amino]-propionic acid] returned a Ki of 5.2 µM. This Ki is about 2.1-fold lower than that of the molecule before.

As to `CC(C(=O)O)N(Cc1ccc([N+](=O)[O-])cc1)S(C)(=O)=O` (configuration not stated) [2-[Methanesulfonyl-(4-nitro-benzyl)-amino]-propionic acid], the Ki came out at 18 µM. Against the preceding molecule, the Ki is about 3.5-fold higher. Next, `CC(C(=O)O)N(Cc1ccc([N+](=O)[O-])cc1)S(=O)(=O)c1cccc([N+](=O)[O-])c1` (configuration not stated) [2-[(3-Nitro-benzenesulfonyl)-(4-nitro-benzyl)-amino]-propionic acid]: 5.5 µM; `CC(C(=O)O)N(Cc1ccc([N+](=O)[O-])cc1)C(=O)Nc1ccc(Cl)cc1` (configuration not stated) [2-[3-(4-Chloro-phenyl)-1-(4-nitro-benzyl)-ureido]-propionic acid]: 6.5 µM; `CC(C(=O)O)N(Cc1ccc([N+](=O)[O-])cc1)S(=O)(=O)c1ccc(C(=O)O)cc1` (configuration not stated) [4-[(1-Carboxy-ethyl)-(4-nitro-benzyl)-sulfamoyl]-benzoic acid]: 1.4 µM.

Take `CC(C(=O)NO)N(Cc1ccc([N+](=O)[O-])cc1)S(=O)(=O)c1cccc2c(N(C)C)cccc12` (configuration not stated) [2-[(5-Dimethylamino-naphthalene-1-sulfonyl)-(4-nitro-benzyl)-amino]-N-hydroxy-propionamide]: the Ki came out at 7 µM. Next, `CC(C(=O)O)N(Cc1ccc([N+](=O)[O-])cc1)S(=O)(=O)C(F)(F)C(F)(F)C(F)(F)C(F)(F)F` (configuration not stated) [2-[(4-Nitro-benzyl)-(nonafluorobutane-1-sulfonyl)-amino]-propionic acid]: 2.3 µM; `CC(C(=O)NO)N(Cc1ccc([N+](=O)[O-])cc1)C(=O)Nc1ccc(F)cc1F` (configuration not stated) [2-[3-(2,4-Difluoro-phenyl)-1-(4-nitro-benzyl)-ureido]-N-hydroxy-propionamide]: 15 µM. Consider `CC(C(=O)O)N(Cc1ccc([N+](=O)[O-])cc1)C(=S)NC(=O)c1ccccc1` (configuration not stated) [2-[3-Benzoyl-1-(4-nitro-benzyl)-thioureido]-propionic acid], for which the Ki turned out to be 0.9 µM. Next, `CC(C(=O)NO)N(Cc1ccc([N+](=O)[O-])cc1)Sc1ccc([N+](=O)[O-])cc1[N+](=O)[O-]` (configuration not stated) [2-[(2,4-Dinitro-phenylsulfanyl)-(4-nitro-benzyl)-amino]-N-hydroxy-propionamide]: 9 µM. Next, `CC(C(=O)O)N(Cc1ccc([N+](=O)[O-])cc1)S(=O)(=O)c1ccc(NC(=O)OC(C)(C)C)cc1` (configuration not stated) [2-[(4-tert-Butoxycarbonylamino-benzenesulfonyl)-(4-nitro-benzyl)-amino]-propionic acid]: 2.4 µM.

Molecule `CC(C(=O)NO)N(Cc1ccc([N+](=O)[O-])cc1)C(=O)NS(=O)(=O)c1ccc(Cl)cc1` (configuration not stated) [2-[({[(4-chlorophenyl)sulfonyl]amino}carbonyl)(4-nitrobenzyl)amino]-N-hydroxypropanamide] yielded a Ki of 7 µM. The value for `CC(C(=O)O)N(Cc1ccc([N+](=O)[O-])cc1)S(=O)(=O)c1cccc(NC(=O)OC(C)(C)C)c1` (configuration not stated) [2-[(3-tert-Butoxycarbonylamino-benzenesulfonyl)-(4-nitro-benzyl)-amino]-propionic acid] was 2.6 µM; that for `CC(C(=O)NO)N(Cc1ccc([N+](=O)[O-])cc1)Sc1ccc([N+](=O)[O-])cc1` (configuration not stated) [N-Hydroxy-2-[(4-nitro-benzyl)-(4-nitro-phenylsulfanyl)-amino]-propionamide] was 11 µM; that for `CC(C(=O)O)N(Cc1ccc([N+](=O)[O-])cc1)S(=O)(=O)C(F)(F)F` (configuration not stated) [2-[(4-Nitro-benzyl)-trifluoromethanesulfonyl-amino]-propionic acid] was 4.7 µM.

`CC(C(=O)O)N(Cc1ccc([N+](=O)[O-])cc1)S(=O)(=O)c1ccc(I)cc1` (configuration not stated) [2-[(4-Iodo-benzenesulfonyl)-(4-nitro-benzyl)-amino]-propionic acid] registered a Ki of 12 µM.

These data come from BindingDB's records for doi:10.1016/s0960-894x(00)00026-3 (Universit&#224, 2000).
